System: 772245-204-R-J1-PDC complex spheroid growth
Assay: Anticancer human tumor 772245-204-R-J1-PDC patient-derived rhabdomyosarcoma cell line growth inhibition [Asc]
Settings: for IC50: curve of first compound; for viability, T/C: stronger effect = lower value
In short: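 Stromal components (HUVEC and hMSC) are co-assembled with the cancer cells into multicellular spheroids. Drugs are then added singly or paired, at concentrations falling by half-log increments from a clinically achievable maximum, capped at 10 microM without known Cmax.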

[1] = second compound 0.1 µM, first compound 0.00316 µM
[2] = second compound 0.1 µM, first compound 0.01 µM
[3] = second compound 0.1 µM, first compound 0.0316 µM
[4] = second compound 0.1 µM, first compound 0.1 µM
[5] = second compound 0.1 µM, first compound 0.316 µM
[6] = second compound 0.1 µM, first compound 1 µM
[7] = second compound 0.316 µM, first compound 0.00316 µM
[8] = second compound 0.316 µM, first compound 0.01 µM
[9] = second compound 0.316 µM, first compound 0.0316 µM
[10] = second compound 0.316 µM, first compound 0.1 µM
[11] = second compound 0.316 µM, first compound 0.316 µM
[12] = second compound 0.316 µM, first compound 1 µM
[13] = second compound 1 µM, first compound 0.00316 µM
[14] = second compound 1 µM, first compound 0.01 µM
[15] = second compound 1 µM, first compound 0.0316 µM
[16] = second compound 1 µM, first compound 0.1 µM
[17] = second compound 1 µM, first compound 0.316 µM
[18] = second compound 1 µM, first compound 1 µM
[19] = second compound 3.16 µM, first compound 0.00316 µM
[20] = second compound 3.16 µM, first compound 0.01 µM
[21] = second compound 3.16 µM, first compound 0.0316 µM
[22] = second compound 3.16 µM, first compound 0.1 µM
[23] = second compound 3.16 µM, first compound 0.316 µM
[24] = second compound 3.16 µM, first compound 1 µM
[25] = second compound 10 µM, first compound 0.00316 µM
[26] = second compound 10 µM, first compound 0.01 µM
[27] = second compound 10 µM, first compound 0.0316 µM
[28] = second compound 10 µM, first compound 0.1 µM
[29] = second compound 10 µM, first compound 0.316 µM
[30] = second compound 10 µM, first compound 1 µM
[31] = second compound 0.03 µM, first compound 0.0316 µM
[32] = second compound 0.03 µM, first compound 0.1 µM
[33] = second compound 0.03 µM, first compound 0.316 µM
[34] = second compound 0.03 µM, first compound 1 µM
[35] = second compound 0.0949 µM, first compound 0.0316 µM
[36] = second compound 0.0949 µM, first compound 0.1 µM
[37] = second compound 0.0949 µM, first compound 0.316 µM
[38] = second compound 0.0949 µM, first compound 1 µM
[39] = second compound 0.3 µM, first compound 0.0316 µM
[40] = second compound 0.3 µM, first compound 0.1 µM
[41] = second compound 0.3 µM, first compound 0.316 µM
[42] = second compound 0.3 µM, first compound 1 µM
[43] = second compound 0.949 µM, first compound 0.0316 µM
[44] = second compound 0.949 µM, first compound 0.1 µM
[45] = second compound 0.949 µM, first compound 0.316 µM
[46] = second compound 0.949 µM, first compound 1 µM
[47] = second compound 3 µM, first compound 0.0316 µM
[48] = second compound 3 µM, first compound 0.1 µM
[49] = second compound 3 µM, first compound 0.316 µM
[50] = second compound 3 µM, first compound 1 µM
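Also: compound exposure lasted seven days.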
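For viability, T/C in this document: 100% = DMSO vehicle control viability.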

Compound: O=C(c1ccc(F)c(F)c1Nc1ccc(I)cc1F)N1CC(O)([C@@H]2CCCCN2)C1 + Cc1c(S(C)(=O)=O)c(-c2cc(F)cc(N3CCN(c4ccc(NS(=O)(=O)c5ccc(NC(CCN6CCC(C(=O)OCCCP(=O)(O)O)CC6)CSc6ccccc6)c(S(=O)(=O)C(F)(F)F)c5)cc4)CC3)c2)c(-c2ccc(Cl)cc2)n1C(C)C
- IC50 (second compound 0.1 µM): 673 nM
- IC50 (second compound 0.316 µM): 364 nM
- IC50 (second compound 1 µM): 350 nM
- IC50 (second compound 3.16 µM): 224 nM
- IC50 (second compound 10 µM): 342 nM
- viability, T/C [1]: 85.4%
- viability, T/C [2]: 85.7%
- viability, T/C [3]: 85%
- viability, T/C [4]: 72.4%
- viability, T/C [5]: 80.5%
- viability, T/C [6]: 34.2%
- viability, T/C [7]: 76.3%
- viability, T/C [8]: 76.7%
- viability, T/C [9]: 64.4%
- viability, T/C [10]: 67.5%
- viability, T/C [11]: 55.9%
- viability, T/C [12]: 19.9%
- viability, T/C [13]: 61.1%
- viability, T/C [14]: 66%
- viability, T/C [15]: 66.4%
- viability, T/C [16]: 69%
- viability, T/C [17]: 50.8%
- viability, T/C [18]: 13.4%
- viability, T/C [19]: 57.1%
- viability, T/C [20]: 60.7%
- viability, T/C [21]: 56.6%
- viability, T/C [22]: 59.7%
- viability, T/C [23]: 45.9%
- viability, T/C [24]: 8.31%
- viability, T/C [25]: 40.2%
- viability, T/C [26]: 44.9%
- viability, T/C [27]: 57.1%
- viability, T/C [28]: 78.8%
- viability, T/C [29]: 52.2%
- viability, T/C [30]: 4.51%

Compound: C#Cc1c(F)ccc2cc(O)cc(-c3ncc4c(N5CC6CCC(C5)N6)nc(OCC56CCCN5CC(F)C6)nc4c3F)c12 (stereo not given) + CCN1C(C(=O)NC23CCC(C(=O)O)(CC2)CC3)C(c2cccc(Cl)c2F)C2(C(=O)Nc3cc(Cl)ccc32)C12CCCCC2
- IC50 (second compound 0.03 µM): > 10000 nM
- IC50 (second compound 0.0949 µM): > 10000 nM
- IC50 (second compound 0.3 µM): > 10000 nM
- IC50 (second compound 0.949 µM): > 10000 nM
- IC50 (second compound 3 µM): > 10000 nM
- viability, T/C [31]: 98.8%
- viability, T/C [32]: 106%
- viability, T/C [33]: 94.8%
- viability, T/C [34]: 95.8%
- viability, T/C (second compound 0.03 µM, first compound 3.16 µM): 118%
- viability, T/C (second compound 0.03 µM, first compound 10 µM): 89.5%
- viability, T/C [35]: 98.4%
- viability, T/C [36]: 91.9%
- viability, T/C [37]: 93%
- viability, T/C [38]: 86%
- viability, T/C (second compound 0.0949 µM, first compound 3.16 µM): 93.5%
- viability, T/C (second compound 0.0949 µM, first compound 10 µM): 78.4%
- viability, T/C [39]: 108%
- viability, T/C [40]: 99.2%
- viability, T/C [41]: 106%
- viability, T/C [42]: 111%
- viability, T/C (second compound 0.3 µM, first compound 3.16 µM): 81.2%
- viability, T/C (second compound 0.3 µM, first compound 10 µM): 80.6%
- viability, T/C [43]: 90%
- viability, T/C [44]: 90.9%
- viability, T/C [45]: 86%
- viability, T/C [46]: 86.9%
- viability, T/C (second compound 0.949 µM, first compound 3.16 µM): 91.6%
- viability, T/C (second compound 0.949 µM, first compound 10 µM): 76.5%
- viability, T/C [47]: 73.1%
- viability, T/C [48]: 79.2%
- viability, T/C [49]: 77.1%
- viability, T/C [50]: 67.8%
- viability, T/C (second compound 3 µM, first compound 3.16 µM): 67.3%
- viability, T/C (second compound 3 µM, first compound 10 µM): 54.2%

Compound: COc1c(OCCCN2CCOCC2)ccc2c3n(c(=NC(=O)c4cnc(N)nc4)nc12)CCN3 + Cc1c(S(C)(=O)=O)c(-c2cc(F)cc(N3CCN(c4ccc(NS(=O)(=O)c5ccc(NC(CCN6CCC(C(=O)OCCCP(=O)(O)O)CC6)CSc6ccccc6)c(S(=O)(=O)C(F)(F)F)c5)cc4)CC3)c2)c(-c2ccc(Cl)cc2)n1C(C)C
- IC50 (second compound 0.1 µM): 57.5 nM
- IC50 (second compound 0.316 µM): 48.5 nM
- IC50 (second compound 1 µM): 21.2 nM
- IC50 (second compound 3.16 µM): < 3.16 nM
- IC50 (second compound 10 µM): < 3.16 nM
- viability, T/C [1]: 82.5%
- viability, T/C [2]: 73.1%
- viability, T/C [3]: 55.7%
- viability, T/C [4]: 45.2%
- viability, T/C [5]: 27.1%
- viability, T/C [6]: 18.8%
- viability, T/C [7]: 64.2%
- viability, T/C [8]: 74.5%
- viability, T/C [9]: 55.4%
- viability, T/C [10]: 36.8%
- viability, T/C [11]: 18.4%
- viability, T/C [12]: 11.6%
- viability, T/C [13]: 65.4%
- viability, T/C [14]: 59.9%
- viability, T/C [15]: 44.8%
- viability, T/C [16]: 24.9%
- viability, T/C [17]: 12.7%
- viability, T/C [18]: 6.44%
- viability, T/C [19]: 43.6%
- viability, T/C [20]: 56.1%
- viability, T/C [21]: 29.4%
- viability, T/C [22]: 19.3%
- viability, T/C [23]: 11.5%
- viability, T/C [24]: 3.48%
- viability, T/C [25]: 49.3%
- viability, T/C [26]: 41.9%
- viability, T/C [27]: 39.1%
- viability, T/C [28]: 18.2%
- viability, T/C [29]: 6.81%
- viability, T/C [30]: 3.06%

Compound: COc1c(OCCCN2CCOCC2)ccc2c3n(c(=NC(=O)c4cnc(N)nc4)nc12)CCN3 + CCN1C(C(=O)NC23CCC(C(=O)O)(CC2)CC3)C(c2cccc(Cl)c2F)C2(C(=O)Nc3cc(Cl)ccc32)C12CCCCC2
- IC50 (second compound 0.03 µM): 188 nM
- IC50 (second compound 0.0949 µM): 146 nM
- IC50 (second compound 0.3 µM): 90.5 nM
- IC50 (second compound 0.949 µM): 139 nM
- IC50 (second compound 3 µM): 51.4 nM
- viability, T/C (second compound 0.03 µM, first compound 0.00316 µM): 99.5%
- viability, T/C (second compound 0.03 µM, first compound 0.01 µM): 105%
- viability, T/C [31]: 83.7%
- viability, T/C [32]: 61.6%
- viability, T/C [33]: 41.8%
- viability, T/C [34]: 32.3%
- viability, T/C (second compound 0.0949 µM, first compound 0.00316 µM): 105%
- viability, T/C (second compound 0.0949 µM, first compound 0.01 µM): 97.6%
- viability, T/C [35]: 80%
- viability, T/C [36]: 57.5%
- viability, T/C [37]: 35.6%
- viability, T/C [38]: 24.8%
- viability, T/C (second compound 0.3 µM, first compound 0.00316 µM): 103%
- viability, T/C (second compound 0.3 µM, first compound 0.01 µM): 109%
- viability, T/C [39]: 84.7%
- viability, T/C [40]: 46.6%
- viability, T/C [41]: 39.1%
- viability, T/C [42]: 30%
- viability, T/C (second compound 0.949 µM, first compound 0.00316 µM): 105%
- viability, T/C (second compound 0.949 µM, first compound 0.01 µM): 99%
- viability, T/C [43]: 77.2%
- viability, T/C [44]: 55.2%
- viability, T/C [45]: 37.3%
- viability, T/C [46]: 23%
- viability, T/C (second compound 3 µM, first compound 0.00316 µM): 69.3%
- viability, T/C (second compound 3 µM, first compound 0.01 µM): 78.5%
- viability, T/C [47]: 57.4%
- viability, T/C [48]: 38.1%
- viability, T/C [49]: 29.5%
- viability, T/C [50]: 26.6%

— PubChem BioAssay AID1963433 (Molecular Pharmacology Branch, DTP, NCI, 2024)
